Laboratory results taken from publication PMC12979031 (Neuro-oncology, 2026).

Legend:
recurrent IDHmt gliomas = conditions: second study in this population; cited from earlier work
Surgical = format: in vivo; conditions: human, oral, 60 mg
PARP1/2 = conditions: read-out: in vitro IC50 for PARP1/2 inhibition; cited from earlier work

fraction unbound (Surgical; enhancing tumor)	Kp (Surgical; non-enhancing tumor / plasma)	Kp uu (Surgical; non-enhancing tumor / plasma)	fraction unbound (Surgical; non-enhancing tumor)	fraction unbound (Surgical; plasma)	Structure (SMILES)	responses (recurrent IDHmt gliomas)	IC50 (PARP1/2) [nM]
					O=C(c1cc(Cc2n[nH]c(=O)c3ccccc23)ccc1F)N1CCN(C(=O)C2CC2)CC1 [olaparib]	no responses	
0.076	0.23	0.92	0.083	0.031	C[C@]12CCCN1CC1=NNC(=O)c3cc(F)cc4[nH]c2c1c34 [pamiparib]		~1
